Data set [1] can be described thus: Population toxicokinetic modeling of MDMH and DMH plasma data (IV and TD). The format is in vivo. To be noted: population estimate, rats; for Vd / clearance: male, Sprague-Dawley, rat, plasma, other: intravenous and transdermal data pooled. How it is done:
POP-TK modeling was performed to develop a compartment model describing the disposition of MDMH and DMH following different administration routes. Plasma concentration data from all studies were combined for model development.
The compartment model was designed to fit the absorption phase following TD application, disposition kinetics of MDMH and DMH following IV injection. The disposition phase of MDMH was described with a one-compartment model.
For transdermal application, MDMH applied to the skin undergoes simultaneous absorption and metabolic conversion to DMH and formaldehyde. This process was described by a first-order rate constant (ka,met) representing the combined absorption-metabolism kinetics. The parameter Fa,met represents the fraction of applied dose that penetrates the skin and undergoes metabolic conversion, accounting for incomplete absorption.
DMH formed in the skin compartment subsequently undergoes absorption into systemic circulation. This absorption was modeled using a first-order rate constant (ka,DMH) with three transit compartments to describe the delayed appearance of DMH in plasma.
The disposition of MDMH and DMH was assessed using a linear model with a central and one, two, or three peripheral compartments. The model incorporated both skin metabolism and systemic metabolism of MDMH to DMH. Systemic metabolism was described by the […], representing the fraction of eliminated MDMH that is converted to DMH in the central compartment. Molecular weight correction was applied to account for stoichiometric conversion relationships.
The final disposition and elimination compartment model was determined to use one central compartment for MDMH and one central and one peripheral compartment for DMH based on the objective function.
The differential equations for the amounts of MDMH in the central (XCentral,MDMH) compartments and DMH in the central (XCentral,DMH) and peripheral (XPeripheral,DMH) compartments were:(7) dXCentral,MDMH/dt=−CLMDMH·CCentral,MDMH (8) dXCentral,DMH/dt=−CLDMH·CCentral,DMH−CLDDMH·CCentral,DMH+CLDDMH·CPeripheral,DMH+ka,DMH·XTransit3,DMH+(MWDMH/MWMDMH)·CLMDMH·CCentral,MDMH (9) dXPeripheral,DMH/dt=+CLDDMH·CCentral,DMH−CLDDMH·CPeripheral,DMH
CCentral,MDMH and CCentral,DMH represent MDMH and DMH plasma concentrations in respective compartments and CPeripheral,DMH represent DMH concentration in peripheral compartment. CLMDMH and CLDMH were systemic clearance of MDMH and DMH and CLDDMH was distribution clearance.
The plasma concentrations of MDMH and DMH were simultaneously modeled and predicted using POP-TK modeling with the stochastic approximation expectation maximization (SAEM) algorithm in the parallelized Monolix® 2023R1 (Lixoft, Antony, Paris, France) and Berkeley Madonna version 8.3.11 (University of California at Berkeley, Berkeley, CA, USA). An importance sampling SAEM was used for population parameter estimation to describe the between-subject variability (BSV) for each parameter estimate.

A short description of data set [2]: Stability of MDMH and DMH in rat plasma and processed samples. The format is in vitro ADME. To be noted: n = 5; for Processed sample stability: autosampler at 4 °C for 24 h; for Short-term stability / Freeze–thaw stability / Long-term stability: rat plasma; for Short-term stability: room temperature (25 °C) for 4 h; for Freeze–thaw stability: three freeze–thaw cycles; for Long-term stability: −20 °C for 4 weeks. The method, then:
Short-term stability of MDMH and DMH in rat plasma was evaluated at room temperature for 4 h. Long-term stability was assessed following storage at −20 °C for 4 weeks. Freeze–thaw stability was determined after three freeze–thaw cycles. Additionally, processed sample stability was evaluated in the autosampler at 4 °C for 24 h. Stability was considered acceptable when the mean deviation from theoretical concentrations was within ±15%.
Stability studies were conducted using five replicates of low and high quality control samples under various analytical conditions, with results shown in Table 3. Short-term stability was evaluated at room temperature (25 °C) for 4 h, showing mean recoveries within acceptable limits for both analytes. Long-term stability was assessed following storage at −20 °C for 4 weeks, with recoveries remaining within ±15% of theoretical concentrations. Freeze–thaw stability was evaluated after three freeze–thaw cycles. Processed sample stability in the autosampler at 4 °C for 24 h was also within acceptable ranges.

Where two headings read alike, the source gives them in different places.

For `CC1(C)NC(=O)NC1=O` [DMH, 5,5-dimethylhydantoin], the Vd in data set [1] (Mean (BSV), read-out: Central volume of distribution for DMH (Vc,DMH)) is 0.32 L. Moreover, the clearance in data set [1] (Mean (BSV), read-out: Clearance for DMH (CLDMH) (converted)) was 3.17 mL/min. Also, in data set [1] (Mean (BSV)), the “Absorption rate constant for DMH into the central compartment from skin (ka,DMH)” value is listed as 8.03 (38.33) 1/h, the “Distribution clearance for DMH (CLDDMH)” value was 5.73 (71.8) L/h and the “Peripheral volume of distribution for DMH (Vp,DMH)” value is reported as 0.43 (35.86) L. Besides, the “absorption rate constant for DMH (ka,DMH)” value in data set [1] was 8.03 h⁻¹. In data set [2] (High QC), the Processed sample stability is 113.2 ± 1.5%, the Short-term stability came out at 101.0 ± 1.9%, the “Freeze–thaw stability” value is 93.2 ± 5.8% and the Long-term stability came out at 112.0 ± 3.2%. In data set [2] (Low QC), the Processed sample stability is 90.9 ± 6.9%, the Short-term stability is listed as 102.0 ± 1.4%, the “Freeze–thaw stability” value came to 89.3 ± 3.8% and the Long-term stability worked out at 106.2 ± 4.3%.
As for `CC1(C)C(=O)NC(=O)N1CO` [MDMH, 1-(Hydroxymethyl)-5,5-dimethylhydantoin], in data set [1] (Mean (BSV), read-out: Central volume of distribution for MDMH (Vc,MDMH)), the Vd was 1.18 L. Moreover, the clearance in data set [1] (Mean (BSV), read-out: Clearance for MDMH (CLMDMH) (converted)) was 2460 mL/min. Also, in data set [1] (Mean (BSV)), the “Absorption-metabolism rate constant for MDMH in skin (Ka,met)” value was 0.31 (6.44) 1/h. Moreover, the “combined absorption-metabolism rate constant (ka,met)” value in data set [1] was 0.31 h⁻¹. In data set [2] (High QC), the Processed sample stability came out at 112.0 ± 3.5%, the Short-term stability stood at 99.7 ± 1.3%, the “Freeze–thaw stability” value amounted to 94.0 ± 1.8% and the Long-term stability is reported as 109.0 ± 3.9%. In data set [2] (Low QC), the Processed sample stability worked out at 98.9 ± 4.7%, the Short-term stability came out at 102.6 ± 1.5%, the “Freeze–thaw stability” value is given as 90.1 ± 4.1% and the Long-term stability stood at 110.4 ± 1.1%.
